Measurements reported in US20250090621A1, “METHODS AND COMPOSITIONS FOR THE TREATMENT OF AGE-RELATED MACULAR DEGENERATION” (Stealth BioTherapeutics Inc., priority 2023, published 2025).
Entries after “also recorded” stand apart in the source; their conditions may differ. Residues, ends and D or L forms follow the SMILES beside them.

System: patients with at least one eye with dry AMD and GA
Test: Phase 2 randomized, placebo-controlled, double-masked trial of elamipretide (NCT03891875)
Format: in vivo, human
Procedure: Study design. In this Phase 2, randomized, placebo-controlled, double-masked, multicenter, safety and efficacy trial (ClinicalTrials.gov identifier NCT03891875), patients with at least one eye with dry AMD and GA were included. Visit 1 (screening visit) was performed no more than 14 days before the baseline visit (visit 2, day 1) (FIG. 1). Eligible patients returned for the baseline visit, at which time they were randomized (interactive response system) in a 2:1 ratio to receive either elamipretide 40 mg or placebo administered with a pen injector delivery system as a single daily self-administered subcutaneous injection. This dose was chosen based on the systemic exposure and safety profiles of elamipretide in an earlier trial (Allingham 2022; Mettu 2022). Patients were treated for 48 weeks, with assessments at day 1 and weeks 4, 8, 12, 24, 36, and 48 (visits 2 to 8) plus a final safety follow-up visit 4 weeks after the last day of study treatment (week 52; visit 9). Patient diaries and vial counts were used and reviewed to verify compliance.
Patients—Key inclusion criteria. The original protocol specified that adults≥55 years of age with one eye with dry AMD and GA were eligible for study entry. However, a subsequent amendment to the protocol limited inclusion to patients with noncentral GA. Noncentral GA and area was determined primarily by fundus autofluorescence (FAF) and all noncentral GA lesions were required to be ≥150 μm from foveal center with preserved outer retinal structural details, as confirmed by the central reading center (BIRC, Boston MA). Noncentral GA was required to be ≥0.05 mm^2 and ≤10.16 mm^2 in size, and reside completely within the FAF 30- or 35-degree image. […] The fellow eye was allowed to have AMD with or without GA, MNV, central GA, or no pathology.
Patients—Key exclusion criteria. Key exclusion criteria for study eye included absence of observable hyper-FAF at the margins of the GA (only for lesions 0.25 mm^2), atrophic retinal disease of causality other than AMD including myopia-related maculopathy and monogenetic macular dystrophies including pattern dystrophy and adult-onset Stargardt disease. Presence or diagnosis of exudative AMD or MNV, presence of retinal vein occlusion or vitreous hemorrhage, history of retinal detachment or macular hole, presence of an epiretinal membrane that causes distortion of the retinal contour, vitreomacular traction, or advanced glaucoma in the study eye were also not allowed.
Study objectives and endpoints. The primary efficacy endpoints were changes from baseline in LL BCVA and in square root converted GA area as measured by OCT. Secondary efficacy endpoints included changes in ellipsoid zone integrity, categorical changes from baseline in LL-BCVA, changes from baseline in LL reading acuity (LLRA), BCVA, and GA area as measured by FAF. Additional predefined endpoints included change in center 1-mm and 2-mm mean EZ-RPE thickness, National Eye Institute Visual Function Questionnaire (VFQ-39) score, RA at standard light, visual function by the Low-Luminance Questionnaire (LLQ). For efficacy endpoints, the unit of analysis was study eye; in cases where both eyes are eligible for analysis, the study eye was the eye with the worse LL BCVA as determined at baseline (right eye was the study eye for equal LL BCVA). Ellipsoid zone integrity was measured as previously described on OCT utilizing a machine learning enhanced multi-layer segmentation platform that provided panmacular assessment of the EZ and RPE location (Sirici, et al., Ophthamol Surg Lasers Imaging Retina, 2022; Itoh, et al, Br J Ophthamol, 2016).
The primary safety objective was to evaluate the safety/tolerability of elamipretide. […]

[1] = LS mean change from baseline to week 48, 40 mg SC once daily

**Q.** Which “LS mean change from baseline to week 48 for macular percentage of tEZa (EZ-RPE thickness of 0 μm)” value (40 mg SC once daily, OCT, mITT, placebo 6.47% [0.737], P=0.0034) does the source give for `Cc1cc(O)cc(C)c1C[C@H](NC(=O)[C@H](N)CCCNC(=N)N)C(=O)N[C@@H](CCCCN)C(=O)N[C@@H](Cc1ccccc1)C(N)=O` [elamipretide, H-D-Arg-2′,6′Dmt-Lys-Phe-NH2] (HELM PEPTIDE1{[dR].[Cc1cc(O)cc(C)c1C[C@H](N[*:1])C(=O)[*:2]].K.F.[am]}$$$$V2.0) here?
**A.** 3.69%

**Q.** What about the “LS mean change from baseline to week 48 for pEZa (EZ-RPE thickness ≤20 μm)” value (40 mg SC once daily, OCT, mITT, placebo 7.68% [0.969], P=0.0040) of the same compound?
**A.** 4.10%

**Q.** And the “square root of GA area progression as measured by OCT” value (40 mg SC once daily, week 48, mITT, placebo 0.275, P=0.34)?
**A.** 0.312 mm

**Q.** What about the “patients experiencing a ≥2-line gain (≥10 letter) in LL BCVA” value (40 mg SC once daily, week 48, mITT, placebo 2.1%, P=0.0404) of the same compound?
**A.** 14.6%

**Q.** And the “percentage of patients at week 48 experiencing a >1-line gain” value (40 mg SC once daily, in words, versus placebo)?
**A.** higher compared to placebo

**Q.** What about the “progression of GA area relative to the baseline boundary of total EZ attenuation” value (48-week trial, in words) of the same compound?
**A.** did not progress to the baseline boundary of total EZ attenuation

**Q.** What about the “progression of partial EZ attenuation versus placebo” value (48 weeks, mITT, in words) of the same compound?
**A.** reduces partial EZ attenuation

**Q.** And the “progression of total EZ attenuation versus placebo” value (48 weeks, mITT, in words)?
**A.** significantly less progression of tEZa; also recorded: reduces total EZ attenuation

**Q.** What about the “growth of partial EZ attenuation area during the trial” value (48 weeks, placebo arm 34%) of the same compound?
**A.** 15%

**Q.** And the “growth of total EZ attenuation area (mm^2) during the trial” value (48 weeks, placebo arm 48%)?
**A.** 26%

**Q.** And the “reduction in progression of partial EZ attenuation relative to placebo” value [1]?
**A.** 47%

**Q.** What about the “reduction in progression of total EZ attenuation relative to placebo” value [1] of the same compound?
**A.** 43%

**Q.** What about the “least squares (LS) mean change from baseline in LL BCVA” value (elamipretide 40 mg SC once daily, week 48, mITT, study eye, placebo −4.4, P=0.49) of the same compound?
**A.** −3.0 letters

**Q.** And the “Early discontinuation, reason: Withdrawal by subject” value (elamipretide arm n=117, placebo 3 (5.1))?
**A.** 20 (17.1) n (%)

**Q.** And the “Early discontinuation, reason: Adverse event” value (elamipretide arm n=117, placebo 4 (6.8))?
**A.** 10 (8.5) n (%)

**Q.** What about the “Subjects leaving study early” value (elamipretide arm n=117, placebo 8 (13.6)) of the same compound?
**A.** 34 (29.1) n (%)

**Q.** What about the “GA zonal lesion area, change from baseline at Week 48” value (mITT n=76, baseline 2.63, placebo 0.99) of the same compound?
**A.** 1.15 mm^2

**Q.** What about the “patients who discontinued the study early” value (of 117 randomized to elamipretide [29%], placebo n=8) of the same compound?
**A.** 34 patients

**Q.** And the “early discontinuation due to adverse events” value (of 117 randomized to elamipretide, placebo 4)?
**A.** 10 patients

**Q.** And the “early discontinuation due to withdrawal by subject” value (of 117 randomized to elamipretide, placebo n=3)?
**A.** 20 patients

**Q.** What about the “tEZa zonal lesion area, change from baseline at Week 48” value (post hoc, percent attenuation x total macular area on OCT, mITT n=72, baseline 5.39, placebo 2.23, p = 0.04) of the same compound?
**A.** 1.39 mm^2

**Q.** And the “pEZa zonal lesion area, change from baseline at Week 48” value (post hoc, percent attenuation x total macular area on OCT, mITT n=72, baseline 9.03, placebo 2.65, p = 0.01)?
**A.** 1.34 mm^2

**Q.** What about the “progression of the EZ-GA gap” value (post-hoc, total randomized population, baseline, 24 and 48 weeks, in words, versus placebo) of the same compound?
**A.** slower rate of progression; also recorded: reduced progression of EZ-GA gap

**Q.** And the “treatment effect in LL BCVA versus placebo, subgroup with mean center 1 mm EZ-RPE thickness ≥10-micron” value (post-hoc, week 48, in words)?
**A.** trended towards a treatment effect

**Q.** And the “categorical improvement in LL BCVA (≥2-line gain) versus placebo” value (week 48, mITT, in words)?
**A.** significantly more patients experiencing a ≥2-line gain; also recorded: categorical improvement in LL BCVA
